In article PMC12392461, “Beyond Estrogenicity: A Comparative Assessment of Bisphenol A and Its Alternatives in In Vitro Assays Questions Safety of Replacements” (Environmental Science & Technology, 2025):
Like-named read-outs stand apart in the source and are kept apart here.

How the values were obtained:
[1] = molecular target: T1, Peroxisome proliferator-activated receptor γ (Homo sapiens, UniProt P37231); test: cell-based; conditions: for EC10, linear / logEC10: PPARγ bioassay, dosing range all; for EC10, linear: linear model; for logEC10: log-logistic model
T1 sequence (P37231 238-505 limits assumed): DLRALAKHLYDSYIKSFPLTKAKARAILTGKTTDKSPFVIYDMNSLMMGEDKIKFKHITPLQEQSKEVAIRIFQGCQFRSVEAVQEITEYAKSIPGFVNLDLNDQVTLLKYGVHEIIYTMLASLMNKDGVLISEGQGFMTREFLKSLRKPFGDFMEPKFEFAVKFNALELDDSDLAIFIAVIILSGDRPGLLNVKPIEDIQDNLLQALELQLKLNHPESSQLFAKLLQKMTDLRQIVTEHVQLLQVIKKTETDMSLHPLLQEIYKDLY
Description: All bioassay media components and the ERα-UAS-bla GripTite and PPARγ-UAS-bla cells were obtained from Thermo Fisher Scientific (Waltham, MA, USA). AREc32 reporter gene cells based on MCF7 were provided by C. Roland Wolf (Cancer Research UK); AhR CALUX cells (H4L7.5c2 derived from H4IIe) were provided by Michael Denison (UC Davis, USA); and SH-SY5Y cells were purchased from Sigma-Aldrich.
(§1) Cell culture conditions and bioassay protocols including response detection are provided in Text S2.1–2.4 and Table S3. − Cell viability was determined from cell confluency using an IncuCyte S3 Live-Cell Analysis System (Sartorius AG, Essen, Germany) before and after exposure, except for SH-SY5Y cells (live–dead staining with Nuclear Green LcS1 and propidium iodide, Abcam, UK). For metabolic activation experiments, cell viability was assessed using the ToxBLAzer DualScreen Kit (Thermo Fisher Scientific) to capture the remaining toxicity in ERα-UAS-bla GripTite after treatment with the aCYP catalyst (details in Text S2.4).
(§2) For ARE, the concentration that triggered an induction ratio of 1.5 (ECIR1.5) was used as the benchmark value, as detailed in Text S2.5. IC10 values also served as a threshold for data analysis in all assays; only concentrations below IC10 were considered when deriving EC10 or ECIR1.5.
The maximum efficacy (Emax%) refers to the maximum of the log–logistic concentration–response curve attained by test chemicals compared to the reference chemical’s maximum and was obtained for both ERα and PPARγ. […]
S2: Cell culture and bioassays
S2.1: Cell Culturing Conditions
All suppliers and sources are given in detail in SI-Excel S3. The bioassay media for the different assays were prepared as follows: Assay medium for ER alpha-UAS-bla GripTite (ERα) and […]
2% charcoal-stripped FBS, and 100 U/mL penicillin-streptomycin. […]
(§3) S2.2: Cell Seeding and Incubation. For all bioassays, cell suspensions in the respective assay medium were dispensed into each well of 384-well plates using a MultiFlo Dispenser (Biotek, (now Agilent), Winooski, VT, U.S.). After seeding, the plates were incubated at 37° C and 5% CO₂ for […]. The final cell densities and plate types were as follows: Black poly-D-lysine […]
6500 cells/well, ERα: 5000 cells/well. White 384-well plates with a clear bottom (Product No. […]
S2.3: Chemical Dosing and Assay Analysis Procedures.

[2] = test system: H4IIe (AhR CALUX)
Protocol: as §1, §2
(§4) We measured the cytotoxicity of BPA and its alternatives in HEK293H (PPARγ), HEK293T (ERα), H4IIe (AhR CALUX), MCF7 (ARE/MMP), and differentiated SH-SY5Y cells (Table S6). […]
as §3
(§5) 6500 cells/well, ERα: 5000 cells/well. White 384-well plates with a clear bottom (Product No.
(§6) NYC, U.S.) for AhR: 3250 cells/well. Black Collagen I coated plates were used (Product No.
(§7) S2.3: Chemical Dosing and Assay Analysis Procedures. The dosing procedure and high-throughput assay workflow have been described in detail before. 9 The dosing concentrations […]
(§8) Stock solutions were then either added directly to the respective cell culture medium or evaporated under nitrogen, followed by replenishment with fresh medium. The final solvent content in each well was kept below 1% for methanol, 0% for acetonitrile.
(§9) Dosing plates were prepared as 11 -step serial dilutions using a Hamilton Microlab Star robotic system (Hamilton, Bonaduz, Switzerland), and chemicals were dosed in duplicates by transferring 10 μL twice from the dosing plates to the cell plates . After quantifying cell confluency as described in S2. 4., the exposed cells were incubated at 37° C and 5% CO₂ for an additional 24 h. All chemicals were tested in all assays with at least three independent […]
(§10) S2.4: Cell Viability Measurement s and bioanalytical protocols . The confluency as a measure of cell viability was determined with an IncuCyte S3 Live -Cell Analysis System (Sartorius AG, Essen, Germany). With this method the confluency of cells in a microscopy image are normalized to control wells without cells and compared before and after 24 hours of exposure.
(§11) This method has been described previously 13. […]

[3] = test system: HEK293T (ERα)
Protocol: as §1, §2, §4, §3, §5, §6, §7, §8, §9, §10, §11

[4] = test system: MCF7 (ARE/MMP); conditions: for IC10, linear transformed / IC10, linear / logIC10: dosing range all
Protocol: as §1, §2, §4, §3, §5, §6, §7, §8, §9, §10, §11

[5] = test system: SH-SY5Y cells; conditions: for IC10, linear transformed / IC10, linear / logIC10: NOI bioassay cytotoxicity, dosing range all; for IC10, linear: linear model; for logIC10: log-logistic model; for IC10, SH-S5Y5, NOI: cytotoxicity, NOI assay cells
Protocol: as §1, with “S2.4). […]” for “S2.4).”
as §4
medium, supplemented with 2% B-27 Supplement and 2 mM GlutaMAX Supplement. SH - SY5Y cells were differentiated with 10 µM all-trans retinoic acid prior to the assay.
S2.2: Cell Seeding and Incubation. For all bioassays, cell suspensions in the respective assay medium were dispensed into each well of 384-well plates using a MultiFlo Dispenser (Biotek, (now Agilent), Winooski, VT, U.S.). After seeding, the plates were incubated at 37° C and 5% […]
as §6, §7, §8, §9, §10
This method has been described previously 13. Cell viability of SH-SY5Y cells was measured […]
propidium iodide (PI, Abcam, Cambridge, U.K.).14 Nuclear Green LCS1 is a membrane-permeable dye that stains the nuclei of all cells, whereas PI only enters cells with compromised membrane integrity (non-viable cells). After staining, live cells show green nuclei without red fluorescence, while dead cells display both green and red nuclear fluorescence due to PI […]
intercalation. […]

## CC(C)(c1ccc(O)cc1)c1ccc(O)cc1 [BPA, 4,4'-(Propane-2,2-diyl)diphenol, reference compound]
[1]
  EC10, linear: no effect
  logEC10: no effect
[1]; at concentrations up to IC10
  PPARγ activation: did not activate PPARγ
[2]
  IC10, linear: no cytotoxicity
[2]; rat, 24 h
  logIC10: -3.77
[3]
  IC10, linear: no cytotoxicity
  logIC10: no cytotoxicity
[3]; human, 24 h
  Toxic ratio (TR) TRERα: 0.28
  logIC10: -4.33
[4]; human, 24 h
  Toxic ratio (TR) TRARE: 0.37
  Toxic ratio (TR) TRMMP: 0.31
[5]
  IC10, linear transformed: 2.37E-04
  IC10, linear: no cytotoxicity
  logIC10: -3.62
  IC10, SH-S5Y5, NOI: 237 µM
[5]; against baseline cytotoxicity
  Toxic ratio (TR) TRNOI: 0.0846

## Oc1ccc(C(c2ccc(O)cc2)(C(F)(F)F)C(F)(F)F)cc1 [BPAF, 4,4'-(1,1,1,3,3,3-Hexafluoropropane-2,2-diyl)diphenol]
[1]
  EC10, linear: no effect
  logEC10: no effect
[2]; Bioassay AhR, cytotoxicity, dosing range all
  IC10, linear transformed: 3.99E-05
[2]; Bioassay AhR, cytotoxicity, dosing range all, linear model fit
  IC10, linear: 3.11E-05
[2]; Bioassay AhR, cytotoxicity, dosing range all, log-logistic model fit
  logIC10: -4.40
[2]; cytotoxicity, H4IIe (AhR assay cells)
  IC10, H4IIe, AhR: 31.1 µM
[3]; Bioassay ERα, cytotoxicity, dosing range high
  IC10, linear transformed: 5.56E-06
[3]; Bioassay ERα, cytotoxicity, dosing range high, linear model fit
  IC10, linear: no cytotoxicity
[3]; Bioassay ERα, cytotoxicity, dosing range high, log-logistic model fit
  logIC10: -5.02
[3]; Bioassay ERα, cytotoxicity, dosing range low, linear model fit
  IC10, linear: no cytotoxicity
[3]; Bioassay ERα, cytotoxicity, dosing range low, log-logistic model fit
  logIC10: no cytotoxicity
[3]; cytotoxicity, HEK293 (ERα assay cells)
  IC10, HEK293, ERα: 9.47 µM
[4]; Bioassay ARE, cytotoxicity
  IC10, linear transformed: 1.84E-05
[4]; Bioassay ARE, cytotoxicity, linear model fit
  IC10, linear: 1.82E-05
[4]; Bioassay ARE, cytotoxicity, log-logistic model fit
  logIC10: -4.73
[4]; MMP bioassay cytotoxicity
  IC10, linear transformed: 2.72E-05
[4]; MMP bioassay cytotoxicity, linear model
  IC10, linear: 2.87E-05
[4]; MMP bioassay cytotoxicity, log-logistic model
  logIC10: -4.57
[4]; cytotoxicity, MCF7, ARE readout
  IC10, MCF7, ARE: 18.4 µM
[4]; cytotoxicity, MCF7, MMP readout
  IC10, MCF7, MMP: 27.2 µM
[5]
  IC10, linear transformed: 6.64E-05
  IC10, linear: 7.35E-05
  logIC10: -4.18
  IC10, SH-S5Y5, NOI: 66.4 µM
